Converted amounts (≈) assume the structure as drawn. *1 amine or outer side, *2 acyl side, *3 side chain or, on linkers, in order; H or OH if unused. Where a SMILES comes first, the peptide text is derived from it. Bridges are numbered along the chain shown (N, C = ends). [ ]: non-standard residue; d: D form. The star is where a group is joined. Benzoyl(3-Ph) = O=C(c1cccc(-c2ccccc2)c1)*; Butanoyl(4-OPh) = O=C(CCCOc1ccccc1)*; NH(2-ClPh) = Clc1ccccc1N*; dDab = NCC[C@@H](N)C(=O)O; Octanoyl = CCCCCCCC(=O)*; Dab = NCC[C@H](N)C(=O)O; CO = O=C([*:1])[*:2]
Columns and labels:
P. aeruginosa ATTC 27853 = experiment: microbe, parasite or virus in culture
In short: (§1)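 Growth inhibition is assessed by broth microdilution, with the MIC expressed in mg/L; polymyxin B, colistin, vancomycin and gentamicin act as positive controls.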

[1] = test system: K. pneumoniae ATCC 700603; experiment: microbe, parasite or virus in culture
In short: as §1

K. pneumoniae ATCC 13833 = experiment: microbe, parasite or virus in culture
In short: as §1

K. pneumoniae BAA 2146 = experiment: microbe, parasite or virus in culture
In short: as §1

[2] = test system: P. aeruginosa FADDI PA070; experiment: microbe, parasite or virus in culture
In short: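 Compounds are diluted in broth, the strain is added, and the lowest concentration that inhibits growth is taken as the MIC (mg/L).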

in vitro = details: human
In short: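 HK-2 cells seeded 2000 cells/well in DMEM/F12 with 10% FBS, grown 24 h, then exposed to compounds (300 µM to 2.3 µM, 2-fold series; colistin/polymyxin B 1 mM to 7.8 µM) for 24 h at 37 °C. LDH in medium read at 450 nm after 30 min; cytotoxicity % relative to 1% Triton X-100 and untreated cells.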

E. coli ATCC 25922 = experiment: microbe, parasite or virus in culture
In short: as §1

S. aureus ATCC 25923 = experiment: microbe, parasite or virus in culture
In short: as §1

A. baumannii ATCC 19606 = experiment: microbe, parasite or virus in culture
In short: as §1

Row | Structure (SMILES) | MIC P. aeruginosa ATTC 27853 (P. aeruginosa ATTC 27853; ATTC 27853, 18 h) | MIC K. pneumoniae ATCC 700603 ([1]; ATCC 700603, 18 h) | MIC K. pneumoniae ATCC 13833 (K. pneumoniae ATCC 13833; ATCC 13833, 18 h) | MIC K. pneumoniae BAA 2146 (K. pneumoniae BAA 2146; BAA 2146, 18 h) | MIC P. aeruginosa FADDI PA070 ([2]; FADDI PA070, 18 h) | MIC E. coli ATCC 25922 (E. coli ATCC 25922; ATCC 25922, 18 h) | MIC S. aureus ATCC 25923 (S. aureus ATCC 25923; ATCC 25923, 18 h) | MIC A. baumannii ATCC 19606 (A. baumannii ATCC 19606; ATCC 19606, 18 h) | CC50 at 24 h (in vitro) | MIC P. aeruginosa ATTC 27853 (P. aeruginosa ATTC 27853; broth microdilution, 18 h) | MIC E. coli ATCC 25922 (E. coli ATCC 25922; broth microdilution, 18 h, 37 °C) | MIC S. aureus ATCC 25923 (S. aureus ATCC 25923; Gram-positive strain, broth microdilution, 18 h) | MIC A. baumannii ATCC 19606 (A. baumannii ATCC 19606; broth microdilution, 18 h) | MIC K. pneumoniae ATCC 700603 ([1]; ESBL strain, broth microdilution, 18 h) | MIC K. pneumoniae ATCC 13833 (K. pneumoniae ATCC 13833; broth microdilution, 18 h) | MIC K. pneumoniae BAA 2146 (K. pneumoniae BAA 2146; NDM-1 positive strain, broth microdilution, 18 h) | MIC P. aeruginosa FADDI PA070 ([2]; Pmx-resistant clinical isolate, broth microdilution, 18 h)
1 | CCCCCCCC(=O)N[C@@H](CCN)C(=O)N[C@H](C(=O)N[C@H](CCN)C(=O)N[C@H]1CCNC(=O)[C@H]([C@@H](C)O)NC(=O)[C@H](CCN)NC(=O)[C@H](CCN)NC(=O)[C@H](CC(C)C)NC(=O)[C@@H](Cc2ccccc2)NC(=O)[C@H](CCN)NC1=O)[C@@H](C)O [Compound 20] (Octanoyl-[Dab]T[dDab][Dab][Dab][dF]L[Dab][Dab]T; lactam 4-C) | 2 µg/mL (≈ 1.68 µM) | 1 µg/mL (≈ 0.841 µM) | 0.5 µg/mL (≈ 0.42 µM) | 4 µg/mL (≈ 3.36 µM) | >32 µg/mL |  |  |  | 183 µM |  |  |  |  |  |  |  | 
2 | CC(C)C[C@@H]1NC(=O)[C@@H](Cc2ccccc2)NC(=O)[C@H](CCN)NC(=O)[C@@H](NC(=O)[C@@H](CCN)NC(=O)[C@@H](NC(=O)Nc2ccccc2Cl)[C@@H](C)O)CCNC(=O)[C@H]([C@@H](C)O)NC(=O)[C@H](CCN)NC(=O)[C@H](CCN)NC1=O [Compound 22] ({NH(2-ClPh)-CO}-T[dDab][Dab][Dab][dF]L[Dab][Dab]T; lactam 3-C) |  |  |  |  |  |  |  |  | > 300 µM | 2 µg/mL (≈ 1.79 µM) | 16 µg/mL (≈ 14.3 µM) | >32 µg/mL | >32 µg/mL | 16 µg/mL (≈ 14.3 µM) | 16 µg/mL (≈ 14.3 µM) | 16 µg/mL (≈ 14.3 µM) | >32 µg/mL

Further lines, with some results ahead:

Row | MIC P. aeruginosa ATTC 27853 (P. aeruginosa ATTC 27853; ATTC 27853, 18 h) | MIC K. pneumoniae ATCC 700603 ([1]; ATCC 700603, 18 h) | MIC K. pneumoniae ATCC 13833 (K. pneumoniae ATCC 13833; ATCC 13833, 18 h) | MIC K. pneumoniae BAA 2146 (K. pneumoniae BAA 2146; BAA 2146, 18 h) | MIC P. aeruginosa FADDI PA070 ([2]; FADDI PA070, 18 h) | MIC E. coli ATCC 25922 (E. coli ATCC 25922; ATCC 25922, 18 h) | MIC S. aureus ATCC 25923 (S. aureus ATCC 25923; ATCC 25923, 18 h) | MIC A. baumannii ATCC 19606 (A. baumannii ATCC 19606; ATCC 19606, 18 h) | Structure (SMILES) | CC50 at 24 h (in vitro) | MIC P. aeruginosa ATTC 27853 (P. aeruginosa ATTC 27853; broth microdilution, 18 h) | MIC E. coli ATCC 25922 (E. coli ATCC 25922; broth microdilution, 18 h, 37 °C) | MIC S. aureus ATCC 25923 (S. aureus ATCC 25923; Gram-positive strain, broth microdilution, 18 h) | MIC A. baumannii ATCC 19606 (A. baumannii ATCC 19606; broth microdilution, 18 h) | MIC K. pneumoniae ATCC 700603 ([1]; ESBL strain, broth microdilution, 18 h) | MIC K. pneumoniae ATCC 13833 (K. pneumoniae ATCC 13833; broth microdilution, 18 h) | MIC K. pneumoniae BAA 2146 (K. pneumoniae BAA 2146; NDM-1 positive strain, broth microdilution, 18 h) | MIC P. aeruginosa FADDI PA070 ([2]; Pmx-resistant clinical isolate, broth microdilution, 18 h)
3 | 2 µg/mL (≈ 1.84 µM) | 1 µg/mL (≈ 0.918 µM) | 4 µg/mL (≈ 3.67 µM) | 1 µg/mL (≈ 0.918 µM) | 8 µg/mL (≈ 7.34 µM) | 0.5 µg/mL (≈ 0.459 µM) | >32 µg/mL | 8 µg/mL (≈ 7.34 µM) | CCCCCCCC(=O)N[C@H](C(=O)N[C@H](CCN)C(=O)N[C@H]1CCNC(=O)[C@H]([C@@H](C)O)NC(=O)[C@H](CCN)NC(=O)[C@H](CCN)NC(=O)[C@H](CC(C)C)NC(=O)[C@@H](Cc2ccccc2)NC(=O)[C@H](CCN)NC1=O)[C@@H](C)O [Compound 21] (Octanoyl-T[dDab][Dab][Dab][dF]L[Dab][Dab]T; lactam 3-C) | 289 µM |  |  |  |  |  |  |  | 
4 | 2 µg/mL (≈ 1.78 µM) | 1 µg/mL (≈ 0.889 µM) | 4 µg/mL (≈ 3.55 µM) | 1 µg/mL (≈ 0.889 µM) | >32 µg/mL | 1 µg/mL (≈ 0.889 µM) | >32 µg/mL | 16 µg/mL (≈ 14.2 µM) | CC(C)C[C@@H]1NC(=O)[C@@H](Cc2ccccc2)NC(=O)[C@H](CCN)NC(=O)[C@@H](NC(=O)[C@@H](CCN)NC(=O)[C@@H](NC(=O)CCCOc2ccccc2)[C@@H](C)O)CCNC(=O)[C@H]([C@@H](C)O)NC(=O)[C@H](CCN)NC(=O)[C@H](CCN)NC1=O [Compound 26] ({Butanoyl(4-OPh)}-T[dDab][Dab][Dab][dF]L[Dab][Dab]T; lactam 3-C) | > 300 µM |  |  |  |  |  |  |  | 
5 | 2 µg/mL (≈ 1.75 µM) | 16 µg/mL (≈ 14 µM) | 32 µg/mL (≈ 28 µM) | 8 µg/mL (≈ 7 µM) | 8 µg/mL (≈ 7 µM) | 4 µg/mL (≈ 3.5 µM) | >32 µg/mL | >32 µg/mL | CC(C)C[C@@H]1NC(=O)[C@@H](Cc2ccccc2)NC(=O)[C@H](CCN)NC(=O)[C@@H](NC(=O)[C@@H](CCN)NC(=O)[C@@H](NC(=O)c2cccc(-c3ccccc3)c2)[C@@H](C)O)CCNC(=O)[C@H]([C@@H](C)O)NC(=O)[C@H](CCN)NC(=O)[C@H](CCN)NC1=O [Compound 27] ({Benzoyl(3-Ph)}-T[dDab][Dab][Dab][dF]L[Dab][Dab]T; lactam 3-C) | > 300 µM |  |  |  |  |  |  |  | 
